Test results as given in patent US11219623B2, “Inflammasome inhibition for the treatment of Parkinson's disease, Alzheimer's disease and multiple sclerosis” (University of Kentucky Research Foundation, priority 2015, dated 2022).
Entries after “also recorded” stand apart in the source; their conditions may differ.

Tests used:
[1] = LogP, partition coefficient in 1-octanol; assay type: physicochemical; conditions: 1-octanol partition
Caspase-1 [2] = assay: Alu RNA-induced Caspase-1 activation, western blot, primary human RPE cells; assay type: cell-based
Description: The bottom row in FIG. 5 is a vinculin loading control.

Caspase-1 [3] = assay: Alu RNA-induced Caspase-1 activation, primary mouse RPE cells; assay type: cell-based
IRAK4 [4] = assay: Alu RNA-induced IRAK4 phosphorylation, primary mouse RPE cells; assay type: cell-based
IL-18 = assay: LPS/ATP-induced IL-18 maturation, mouse bone marrow-derived macrophages; assay type: cell-based; conditions: 100 uM; cell culture supernatants
IL-1 beta [5] = assay: LPS/ATP-induced IL-1 beta secretion, mouse bone marrow-derived macrophages; assay type: cell-based; conditions: primary mouse bone marrow-derived macrophages
Description: To determine whether LPS/ATP-induced inflammasome activation can be inhibited without RT inhibition, the present inventors utilized thymidine kinase-deficient (Raji/TK^−) and -expressing (Raji/TK^+) cells (Balzarini et al., 1989).

IL-1 beta [6] = assay: Nigericin-induced IL-1 beta maturation, mouse bone marrow-derived macrophages; assay type: cell-based; conditions: 100, 250 uM
Caspase-1 [7] = assay: Nigericin-induced Caspase-1 activation, mouse bone marrow-derived macrophages; assay type: cell-based; conditions: 100, 250 uM
IL-1 beta mRNA = assay: IL-1beta priming (mRNA) induced by Alu RNA, primary human RPE cells; assay type: cell-based; conditions: 100 uM; 24 hours; normalized to 18S RNA
Description: FIG. 14 illustrates that Alu RNA transfection increases IL-1 beta mRNA levels in primary human RPE cells at 24 hours, an event termed “priming”, (Y-axis) compared to mock (transfection reagent alone).

[8] = tested on: mitochondrial reactive oxygen species (mtROS); assay: Mitochondrial ROS caused by Alu expression, MitoSox assay, primary human RPE cells; assay type: cell-based
Description: After 15 hours cells were co-stained for mtROS (red) and for cell count, nuclei (blue; Hoechst DNA stain).
In FIG. 54, mitochondrial reactive oxygen species (ROS) were visualized with MitoSox (Red) and cell nuclei with Hoechst (Blue).

primary human RPE cells [9] = assay: ATP release induced by Alu RNA, ATP-dependent luciferase assay, primary human RPE cells; assay type: cell-based; conditions: cell culture supernatant
Description: Alu RNA (Kerur et al., 2013) and LPS/ATP (Qu et al., 2011) activate the inflammasome via the ATP receptor P2X7.
(FIG. 16) Primary human RPE cells treated with Alu RNA for the times indicated release ATP. […] ATP was detected using an ATP-dependent luciferase assay.

primary human RPE cells [10] = assay: Extracellular potassium after Alu RNA transfection, potassium-dependent pyruvate kinase assay; assay type: cell-based; conditions: 6 hours
Description: For FIG. 18, potassium levels were determined in cell culture supernatants spectrophotometrically using a potassium-dependent pyruvate kinase assay.

mouse P2X7 receptor = target: T1, mouse P2X7 receptor (Mus musculus, UniProt Q9Z1M0); assay: P2X7 cation channel function, patch clamp, HEK293 cells expressing mouse P2X7; assay type: cell-based; conditions: mouse P2X7 in HEK293
T1 construct: expressed in transfected cells; host or cells: HEK293 cells

rat P2X7 receptor = target: T2, rat P2X7 receptor (Rattus norvegicus, UniProt Q64663); assay: P2X7 cation channel function, patch clamp, HEK293 cells expressing rat P2X7; assay type: cell-based; conditions: rat P2X7 in HEK293
T2 construct: expressed in transfected cells; host or cells: HEK293 cells

Alu RNA = Alu RNA levels, Northern blotting, primary human RPE cells; assay type: cell-based
Description: As presented in FIG. 3, primary human RPE cells treated with antisense oligonucleotides targeting DICER1 (Dcr as) (lane 3 (third lane from left)) show increased Alu RNA levels in the nuclear compartment compared to control antisense oligonucleotides (Ctr as) (lane 1 (leftmost)), monitored by Northern blotting using an Alu-specific probe.
For example, primary human RPE cells may be transfected with Alu RNA, with or without d4T. […] U6 (bottom row) is shown as loading control for nuclear fraction in FIG. 4.
And FIG. 45 presents a Northern blot of biotin-UTP-labeled Alu RNA-transfected primary human RPE cells.

[11] = tested on: GFP-expressing lentivirus; assay: GFP-expressing lentivirus transduction/replication assay in HeLa cells; assay type: cell-based
Description: All drugs were added at a concentration of 10 μM. Cells were imaged for GFP expression 72 hours after addition of lentivirus. GFP-positive cells per field of view were recorded. n=4-11, error bars S.E.M. Reverse transcription of lentivirus is essential for GFP expression; modified NRTIs should not block reverse transcriptase, whereas NRTIs are known to block reverse transcriptase.
(§1) The present disclosure further provides the results of additional experiments in FIG. 21-FIG. 23.

mtDNA = mtDNA levels, real-time quantitative PCR, primary mouse RPE cells; assay type: cell-based; conditions: normalized to chromosomal DNA, n=4
Description: as §1

[12] = tested on: human LINE-1 retrotransposon; assay: EGFP cell culture L1 retrotransposition assay in HeLa cells; assay type: cell-based; conditions: 7 days after transfection, flow cytometry
Description: These findings pave way for the rational re-design and improvement of nucleoside analogs as novel therapeutics. The enhanced green fluorescent protein (EGFP) cell culture L1 retrotransposition assay was performed in HeLa cells. […] Transfected cells were selected in puromycin. 7 days after transfection, cells that underwent retrotransposition (EGFP-positive) were assayed by flow cytometry. Cells were gated based on background fluorescence of plasmid JM111, which has two point mutations in L1-ORF1 that abolish retrotransposition. Data are normalized with RPS set to 1.

wild-type mice [13] = assay: pAlu-induced RPE degeneration, mouse model of dry AMD; assay type: in vivo; conditions: daily oral administration
Description: Mouse studies were conducted to study treatment with NRTIs or derivatives.

mice = assay: Iron-induced RPE degeneration in mice; assay type: in vivo, mouse; conditions: intraperitoneal 25 mg/kg days 1 to 6; read day 7
wild-type mice [14] = assay: Alu RNA-induced RPE degeneration, mouse model of dry AMD; conditions: co-delivered to the vitreous humor; one week after delivery
IRAK4 [15] = assay: Alu RNA-induced IRAK4 phosphorylation, primary human RPE cells

T2 sequence (Q64663 whole entry): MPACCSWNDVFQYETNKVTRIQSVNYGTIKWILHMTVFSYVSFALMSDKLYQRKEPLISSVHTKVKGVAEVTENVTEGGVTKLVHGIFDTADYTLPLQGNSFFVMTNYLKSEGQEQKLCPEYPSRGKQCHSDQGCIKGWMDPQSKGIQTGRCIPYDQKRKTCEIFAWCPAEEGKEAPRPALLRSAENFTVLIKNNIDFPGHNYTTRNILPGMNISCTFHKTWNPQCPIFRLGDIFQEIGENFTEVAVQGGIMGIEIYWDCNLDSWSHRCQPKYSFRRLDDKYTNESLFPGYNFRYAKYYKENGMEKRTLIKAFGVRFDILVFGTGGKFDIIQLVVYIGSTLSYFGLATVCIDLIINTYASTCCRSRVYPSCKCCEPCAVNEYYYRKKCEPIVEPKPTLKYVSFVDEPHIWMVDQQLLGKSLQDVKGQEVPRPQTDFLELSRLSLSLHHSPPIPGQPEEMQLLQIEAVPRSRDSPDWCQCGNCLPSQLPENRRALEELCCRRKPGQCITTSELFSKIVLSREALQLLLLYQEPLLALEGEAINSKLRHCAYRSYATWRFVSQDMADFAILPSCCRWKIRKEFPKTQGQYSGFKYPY
T1 sequence (Q9Z1M0 whole entry): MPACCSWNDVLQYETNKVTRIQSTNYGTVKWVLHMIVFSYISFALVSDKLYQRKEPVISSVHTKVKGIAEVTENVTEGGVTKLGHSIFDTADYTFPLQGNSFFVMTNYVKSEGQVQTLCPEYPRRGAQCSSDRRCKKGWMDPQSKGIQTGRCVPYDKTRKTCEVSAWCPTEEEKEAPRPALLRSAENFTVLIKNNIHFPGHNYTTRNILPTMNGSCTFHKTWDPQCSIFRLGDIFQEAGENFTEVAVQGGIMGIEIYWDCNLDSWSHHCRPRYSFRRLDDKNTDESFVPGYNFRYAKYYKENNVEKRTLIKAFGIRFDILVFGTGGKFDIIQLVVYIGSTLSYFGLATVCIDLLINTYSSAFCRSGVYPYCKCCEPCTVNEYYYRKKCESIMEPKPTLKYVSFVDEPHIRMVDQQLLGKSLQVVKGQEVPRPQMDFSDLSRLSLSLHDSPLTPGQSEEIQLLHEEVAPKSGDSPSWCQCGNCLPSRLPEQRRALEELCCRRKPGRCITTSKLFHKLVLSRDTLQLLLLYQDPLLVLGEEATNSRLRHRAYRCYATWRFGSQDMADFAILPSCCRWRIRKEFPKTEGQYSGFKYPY

Cc1cn([C@H]2C=C[C@@H](CO)O2)c(=O)[nH]c1=O [d4T, 2′3′ dideoxythymidine]
logP [1]: -0.23 | Alu RNA-induced Caspase-1 maturation (Caspase-1 [2]; 100 uM, 24 hours after Alu administration): blocked | Alu RNA-induced Caspase-1 activation/cleavage (Caspase-1 [2]; concentration not given): prevents Caspase 1 cleavage | Caspase 1 cleavage to active 20 kDa form induced by Alu RNA (Caspase-1 [3]): prevents Caspase 1 cleavage | IRAK4 phosphorylation induced by Alu RNA (IRAK4 [4]): blocks phosphorylation of IRAK4 | IL-18 maturation induced by LPS/ATP (IL-18): inhibit | secretion of mature IL-1 beta upon LPS/ATP (IL-1 beta [5]): blocks secretion of mature IL-1 beta | IL-1 beta maturation (18 and 22 kDa forms) induced by nigericin (IL-1 beta [6]): inhibits IL-1 beta maturation | Caspase-1 activation (active p20 band) induced by nigericin (Caspase-1 [7]): inhibits | IL-1 beta mRNA levels (priming) induced by Alu RNA (IL-1 beta mRNA): reduces IL-1beta priming | mitochondrial ROS caused by Alu expression (pAluA) [8]: reduces mitochondrial ROS; also recorded: prevents pAlu-induced mitochondrial ROS generation | ATP release induced by Alu RNA (primary human RPE cells [9]): does not block release of ATP; also recorded: did not affect ATP release | extracellular potassium levels after Alu RNA transfection (primary human RPE cells [10]): reduces extracellular potassium levels | P2X7 cation channel function (mouse P2X7 receptor): did not significantly modulate P2X7 cation channel function | P2X7 cation channel function (rat P2X7 receptor): did not significantly modulate P2X7 cation channel function | Alu RNA levels, nuclear compartment (Alu RNA; cells treated with antisense oligonucleotides targeting DICER1): does not reduce Alu RNA levels | Alu RNA levels after Alu RNA transfection (Alu RNA; nuclear fraction 1, 4, or 24 hours (FIG. 4), biotin-UTP-labeled Alu RNA (FIG. 45)): does not change Alu RNA levels; also recorded: did not reduce Alu RNA levels | lentivirus replication (GFP-positive cells per field) ([11]; 10 μM, 72 hours, MOI 20): blocked lentivirus GFP expression | replication of GFP-expressing lentivirus ([11]; FIG. 22, concentration not given): blocks replication | mtDNA levels (mtDNA): reduces mtDNA levels | L1 retrotransposition (EGFP-positive cells) [12]: blocked L1 retrotransposition | pAlu-induced RPE degeneration (wild-type mice [13]): blocked RPE degeneration | Iron-induced RPE degeneration (mice): blocked the development of RPE degeneration | Alu RNA-induced RPE cell death (wild-type mice [14]): prevents Alu RNA-induced RPE cell death in a dose-dependent manner | IRAK4 phosphorylation induced by Alu RNA (IRAK4 [15]): blocks phosphorylation of IRAK4
